Data from PMC4877593, “Design and Synthesis of Potent in Vitro and in Vivo Anticancer Agents Based on 1-(3′,4′,5′-Trimethoxyphenyl)-2-Aryl-1H-Imidazole” (Scientific Reports, 2016).
Read-outs that look alike come from different tables or passages of the source.

Assays:
[1] = system: panel of seven human tumor cell lines; settings: previously published triazole; ref 16d; read-out: IC50 values in the same seven cell lines (range); cited from earlier work
MCF-7 = assay: In vitro antiproliferative activity (MTT), MCF-7; format: cell-based; settings: Homo sapiens, MCF7, tumor cell proliferation, 72 h, mean ± SE
Protocol: (§1) Human T-cell leukemia (CCRF-CEM and Jurkat) and human B-cell leukemia (SEM) cells were grown in RPMI-1640 medium (Gibco, Milano, Italy). Breast adenocarcinoma (MCF7), human cervix carcinoma (HeLa), and human colon adenocarcinoma (HT-29) cells were grown in DMEM medium (Gibco, Milano, Italy), all supplemented with 115 units/mL penicillin G (Gibco, Milano, Italy), 115 μg/mL streptomycin (Invitrogen, Milano, Italy), and 10% fetal bovine serum (Invitrogen, Milano, Italy). Stock solutions (10 mM) of the different compounds were obtained by dissolving them in dimethyl sulfoxide (DMSO). Individual wells of a 96-well tissue culture microtiter plate were inoculated with 100 μL of complete medium containing 8 × 10^3 cells. The plates were incubated at 37 °C in a humidified 5% CO2 incubator for 18 h prior to the experiments. After medium removal, 100 μL of fresh medium containing the test compound at different concentrations was added to each well in triplicate and incubated at 37 °C for 72 h. The percentage of DMSO in the medium never exceeded 0.25%. This was also the maximum DMSO concentration in all cell-based assays described below. […] Different concentrations of the test compounds were added, and viability was determined 72 h later by the MTT test. For cytotoxicity evaluations in resting PBL cultures, non-adherent cells were resuspended (5 × 10^5 cells/mL) and treated for 72 h with the test compounds, as described above.

HT-29 = assay: In vitro antiproliferative activity (MTT), HT-29; format: cell-based; settings: Homo sapiens, tumor cell proliferation, 72 h, mean ± SE
Protocol: as §1

[2] = system: panel of seven human tumor cell lines; assay: Antiproliferative activity across the panel of seven human tumor cell lines; format: cell-based
Protocol: as §1

HL-60 = assay: In vitro antiproliferative activity (MTT), HL-60; format: cell-based; settings: Homo sapiens, tumor cell proliferation, 72 h, mean ± SE
bovine brain tubulin = assay: Inhibition of tubulin polymerization (turbidimetry); format: biochemical
Protocol: To evaluate the effect of the compounds on tubulin assembly in vitro[22], varying concentrations of compounds were preincubated with 10 μM bovine brain tubulin in glutamate buffer at 30 °C and then cooled to 0 °C. After addition of 0.4 mM GTP (final concentration), the mixtures were transferred to 0 °C cuvettes in a recording spectrophotometer equipped with an electronic temperature controller and warmed to 30 °C. Tubulin assembly was followed turbidimetrically at 350 nm. […] The ability of the test compounds to inhibit colchicine binding to tubulin was measured as described, except that the reaction mixtures contained 1 μM tubulin, 5 μM [^3H]colchicine and 1 or 5 μM test compound.

RS4;11 = assay: In vitro antiproliferative activity (MTT), RS4;11; format: cell-based; settings: Homo sapiens, tumor cell proliferation, 72 h, mean ± SE
Jurkat = assay: In vitro antiproliferative activity (MTT), Jurkat; format: cell-based; settings: Homo sapiens, tumor cell proliferation, 72 h, mean ± SE
Protocol: as §1

A549 = assay: In vitro antiproliferative activity (MTT), A549; format: cell-based; settings: Homo sapiens, tumor cell proliferation, 72 h, mean ± SE
Protocol: as §1

HeLa = assay: In vitro antiproliferative activity (MTT), HeLa; format: cell-based; settings: Homo sapiens, tumor cell proliferation, 72 h, mean ± SE
Protocol: as §1

tubulin = settings: read-out: IC50 inhibitor of tubulin polymerization; cited from earlier work
[3] = system: NCI-H460 (human lung large cell carcinoma); settings: cited from earlier work
[4] = system: HCT-15 (human colon adenocarcinoma); settings: cited from earlier work
[5] = average over the seven cell lines, read-out: average IC50 values
[6] = tubulin at 10 μM, 20 min incubation, read-out: Tubulin assembly IC50 ± S.D.
[7] = range over seven cancer cell lines, read-out: IC50 values in the seven cell lines (range)
[8] = repeated beside the calculated energies, read-out: inhibition of tubulin polymerization IC50 (Table 4)

Compound | IC50 (MCF-7) [nM] | IC50 (HT-29) [nM] | IC50 [2, 5] [nM] | IC50 (HL-60) [nM] | IC50 (bovine brain tubulin; [6]) [nM] | IC50 (RS4;11) [nM] | IC50 (Jurkat) [nM] | IC50 (A549) [nM] | IC50 (HeLa) [nM] | IC50 [2, 7] [nM] | melting point [°C] | IC50 (bovine brain tubulin; [8]) [nM] | IC50 [1] [nM] | IC50 (tubulin) [nM] | IC50 [3] [nM] | IC50 [4] [nM]
1-(3′,4′,5′-trimethoxyphenyl)-5-(3′-chloro-4′-ethoxyphenyl) triazole | – | – | – | – | – | – | – | – | – | – | – | – | 3 to 20 | – | – | –
COc1ccc(/C=C\c2cc(OC)c(OC)c(OC)c2)cc1O [CA-4, Combretastatin A-4, reference compound] | 5 ± 0.6 | 180 ± 30 | 523 | […] | […] | […] | 0.8 ± 0.2 | […] | […] | – | – | – | – | – | – | –
COc1cc(-n2ccnc2-c2ccc(N(C)C)cc2)cc(OC)c1OC [Compound 3a, 1-(3′,4′,5′-trimethoxyphenyl)-2-(4′-N,N-dimethylaminophenyl)-1H-imidazole] | – | – | – | – | – | – | – | – | – | – | – | – | – | 35000 | 270 | 80
COc1ccc(-c2nccn2-c2cc(OC)c(OC)c(OC)c2)cc1F [Compound 4d, 2-(3′-Fluoro-4′-methoxyphenyl)-1-(3′,4′,5′-trimethoxyphenyl)-1H-imidazole] | 74 ± 17 | 112 ± 15 | – | 29 ± 9.5 | – | 217 ± 46 | 90 ± 23 | 121 ± 56 | 51 ± 6.5 | – | – | – | – | – | – | –
COc1cc(-n2ccnc2-c2cc(C)c(OC)c(C)c2)cc(OC)c1OC [Compound 4h, 2-(4′-Methoxy-3′,5′-dimethylphenyl)-1-(3′,4′,5′-trimethoxyphenyl)-1H-imidazole] | > 10000 | > 10000 | – | 3470 ± 467 | – | > 10000 | > 10000 | > 10000 | 9160 ± 1590 | – | 153 to 155 | – | – | – | – | –
COc1ccc(-c2nccn2-c2cc(OC)c(OC)c(OC)c2)cc1OC [Compound 4i, 1-(3′,4′,5′-Trimethoxyphenyl)-2-(3′,4′-dimethoxyphenyl)-1H-imidazole] | > 10000 | > 10000 | – | 3930 ± 517 | – | > 10000 | > 10000 | > 10000 | > 10000 | – | – | – | – | – | – | –
CCOc1cccc(-c2nccn2-c2cc(OC)c(OC)c(OC)c2)c1 [Compound 4l, 2-(3′-Ethoxyphenyl)-1-(3′,4′,5′-trimethoxyphenyl)-1H-imidazole] | > 10000 | > 10000 | – | > 10000 | – | > 10000 | > 10000 | > 10000 | > 10000 | – | 121 to 122 | – | – | – | – | –
CCOc1ccccc1-c1nccn1-c1cc(OC)c(OC)c(OC)c1 [Compound 4m, 2-(2′-Ethoxyphenyl)-1-(3′,4′,5′-trimethoxyphenyl)-1H-imidazole] | > 10000 | > 10000 | – | > 10000 | – | > 10000 | > 10000 | > 10000 | > 10000 | – | 130 to 132 | – | – | – | – | –
CCOc1ccc(-c2nccn2-c2cc(OC)c(OC)c(OC)c2)cc1F [Compound 4n, 2-(3′-Fluoro-4′-ethoxyphenyl)-1-(3′,4′,5′-trimethoxyphenyl)-1H-imidazole] | 3.4 ± 0.38 | 7.5 ± 1.2 | 7.2 | 3.5 ± 0.73 | 570 | 8.6 ± 1.1 | 12 ± 6.6 | 14 ± 2.3 | 1.5 ± 0.32 | 1.5 to 14.2 | 127 to 129 | – | – | – | – | –

Now from value to compound, other results behind:

IC50 (MCF-7) [nM] | IC50 (HT-29) [nM] | IC50 [2, 5] [nM] | IC50 (HL-60) [nM] | IC50 (bovine brain tubulin; [6]) [nM] | IC50 (RS4;11) [nM] | IC50 (Jurkat) [nM] | IC50 (A549) [nM] | IC50 (HeLa) [nM] | IC50 [2, 7] [nM] | melting point [°C] | IC50 (bovine brain tubulin; [8]) [nM] | Compound | IC50 [1] [nM] | IC50 (tubulin) [nM] | IC50 [3] [nM] | IC50 [4] [nM]
230 ± 55 | 233 ± 52 | 1710 | 4770 ± 120 | – | 5400 ± 950 | 133 ± 31 | 1010 ± 104 | 210 ± 10.2 | 210 to 5400 | – | – | COc1ccc(-c2nccn2-c2cc(OC)c(OC)c(OC)c2)cc1 [Compound 3b, reference compound] | – | – | 1100 | 1600
2800 ± 721 | 1920 ± 354 | – | 2100 ± 252 | – | > 10000 | 760 ± 136 | 4730 ± 328 | 1260 ± 172 | – | 142 to 144 | – | COc1cc(-n2ccnc2-c2ccc(C)cc2)cc(OC)c1OC [Compound 4a, 1-(3′,4′,5′-Trimethoxyphenyl)-2-p-tolyl-1H-imidazole] | – | – | – | –
2090 ± 374 | 1400 ± 200 | – | 4800 ± 451 | – | 5680 ± 259 | 4570 ± 758 | 7000 ± 1150 | 1980 ± 126 | – | 130 to 132 | – | CCc1ccc(-c2nccn2-c2cc(OC)c(OC)c(OC)c2)cc1 [Compound 4b, 2-(4′-Ethylphenyl)-1-(3′,4′,5′-trimethoxyphenyl)-1H-imidazole] | – | – | – | –
1360 ± 350 | 330 ± 36 | – | 333 ± 41 | – | 800 ± 58 | 407 ± 24 | 5600 ± 352 | 337 ± 48 | – | 158 to 160 | – | COc1cc(-n2ccnc2-c2ccc(SC)cc2)cc(OC)c1OC [Compound 4c, 1-(3′,4′,5′-Trimethoxyphenyl)-2-(4′-(methylthio)phenyl)-1H-imidazole] | – | – | – | –
666 ± 231 | 647 ± 83 | – | 453 ± 14 | – | 715 ± 148 | 365 ± 25 | 2600 ± 422 | 263 ± 39 | – | 176 to 178 | – | COc1ccc(-c2nccn2-c2cc(OC)c(OC)c(OC)c2)cc1Cl [Compound 4e, 2-(3′-Chloro-4′-methoxyphenyl)-1-(3′,4′,5′-trimethoxyphenyl)-1H-imidazole] | – | – | – | –
509 ± 25 | 377 ± 33 | – | 413 ± 27 | – | 475 ± 106 | 136 ± 38 | 4720 ± 509 | 330 ± 25 | – | 128 to 130 | – | COc1ccc(-c2nccn2-c2cc(OC)c(OC)c(OC)c2)cc1C [Compound 4f, 2-(4′-Methoxy-3′-methylphenyl)-1-(3′,4′,5′-trimethoxyphenyl)-1H-imidazole] | – | – | – | –
> 10000 | > 10000 | – | > 10000 | – | 2570 ± 784 | 4930 ± 536 | > 10000 | 623 ± 98 | – | – | – | COc1cc(-c2nccn2-c2cc(OC)c(OC)c(OC)c2)ccc1C [Compound 4g, 2-(4′-Methyl-3′-methoxyphenyl)-1-(3′,4′,5′-trimethoxyphenyl)-1H-imidazole] | – | – | – | –
> 10000 | > 10000 | – | > 10000 | – | > 10000 | 6630 ± 338 | > 10000 | > 10000 | – | 125 to 127 | – | COc1cc(-n2ccnc2-c2ccc(OC(F)(F)F)cc2)cc(OC)c1OC [Compound 4j, 1-(3′,4′,5′-Trimethoxyphenyl)-2-(4′-(trifluoromethoxy)phenyl)-1H-imidazole] | – | – | – | –
1.5 ± 0.2 | 1.8 ± 0.8 | 7.1 | 4.8 ± 1.9 | 630 | 34.7 | 1.2 ± 0.5 | 1.9 ± 1 | 3.7 ± 0.12 | 1.8 to 34.7 | 132 to 134 | 630 | CCOc1ccc(-c2nccn2-c2cc(OC)c(OC)c(OC)c2)cc1 [Compound 4k, 2-(4′-Ethoxyphenyl)-1-(3′,4′,5′-trimethoxyphenyl)-1H-imidazole] | – | – | – | –
69 ± 7 | 174 ± 16 | – | 12 ± 2.5 | – | 85 ± 20 | 127 ± 27 | 228 ± 81 | 48 ± 2.5 | – | 143 to 145 | – | CCSc1ccc(-c2nccn2-c2cc(OC)c(OC)c(OC)c2)cc1 [Compound 4p, 2-(4′-(Ethylthio)phenyl)-1-(3′,4′,5′-trimethoxyphenyl)-1H-imidazole] | – | – | – | –
1.7 ± 0.6 | 15 ± 1.3 | – | 63 ± 17.6 | 1400 ± 100 | 91 ± 8.9 | 42 ± 3.9 | 63 ± 18.1 | 2.9 ± 0.8 | – | – | 1400 | CCCOc1ccc(-c2nccn2-c2cc(OC)c(OC)c(OC)c2)cc1 [Compound 4q, 1-(3′,4′,5′-Trimethoxyphenyl)-2-(4′-n-propoxyphenyl)-1H-imidazole] | – | – | – | –
